Like-named read-outs stand apart in the source and are kept apart here.
Biological target: T1, GLP-1 Receptor (GLP1R) (Homo sapiens, UniProt P43220)
T1 construct: host or cells: HEK293/GLP1R/CRE-LUC
Assay: GLP-1R agonist cAMP stimulation assay (Method 3)
Type: cell-based
Details: HEK293/GLP1R/CRE-LUC cells (HDB), Method 3, 30 min incubation
Description: Method 3: Activation of GLP-1 receptor is known to stimulate cyclic AMP (cAMP) production in cells which indicates primary coupling to the Gαs subunit of the G protein heterotrimeric complex.
To optimize functional activity directed toward Gαs coupling, a HEK293/CRE-Luc cell line developed by HDB stably expressing the GLP-1 Receptor was used, 200× concentration of compound working solutions were prepared (Agilent Technologies Bravo) with 1/2 log serial dilution in 384-well Echo LDV plate (Labcyte, Cat #LP-0200). 50 nL/well 200× concentration of compound working solutions were moved to 384-well white low volume plate (Greiner, Cat #784075) using Labcyte ECHO550. 1×10^5 cells/mL HEK293/GLP1R/CRE-LUC(HD Biosciences) cell suspensions prepared with assay buffer [DPBS containing 0.5 mM IBMX (Sigma, Cat #15879) and 0.1% BSA (GENVIEW, Cat #FA016-100 g)], 10 μL cell suspensions were added to each well of previous generated assay plate which already contains 50 nL compound at 200× concentration using ThermoFisher Multidrop Combi (1000 cells/well). Seal the plate and incubate at 37° C. with 5% CO2 for 30 min.
After incubation the cAMP assay signal was generated using cAMP dynamic 2 Kit (Cisbio). 5 μL cAMP-d2 working solution was added to each well, followed with 5 μL Anti-cAMP antibody-cryptate working solution added to each well using ThermoFisher Multidrop Combi. Incubate at room temperature for 1 hour protected from light. Read the fluorescence at 665 nm and 615 nm with Reader PerkinElmer EnVision.

[1] = read-out: GLP1R cAMP Stimulation DR: EC50 (nM) [Species: Human, Assay Cell Line: HDB]
[2] = read-out: GLP1R cAMP Stimulation DR: pEC50 (M) [Species: Human, Assay Cell Line: HDB] (converted)

T1 sequence (P43220 24-463): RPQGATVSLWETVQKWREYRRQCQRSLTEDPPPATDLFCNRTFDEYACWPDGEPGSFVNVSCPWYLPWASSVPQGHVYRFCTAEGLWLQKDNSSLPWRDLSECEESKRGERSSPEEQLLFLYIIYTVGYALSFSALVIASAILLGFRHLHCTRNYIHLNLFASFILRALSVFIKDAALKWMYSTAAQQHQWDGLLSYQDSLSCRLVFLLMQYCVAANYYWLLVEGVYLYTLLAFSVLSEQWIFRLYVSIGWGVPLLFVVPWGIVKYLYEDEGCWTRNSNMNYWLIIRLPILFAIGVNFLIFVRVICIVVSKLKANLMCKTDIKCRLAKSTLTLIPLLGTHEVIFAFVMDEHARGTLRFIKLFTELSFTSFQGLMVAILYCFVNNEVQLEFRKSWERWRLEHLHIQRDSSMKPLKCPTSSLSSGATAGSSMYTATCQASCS

| Compound | EC50 [1] [nM] | EC50 [2] [nM] |
| --- | --- | --- |
| CNc1cc(-n2ccn(-c3c4c(nn3-c3cc(C)c(F)c(C)c3)CCN(C(=O)c3cc5cc(C6CCOCC6)ccc5n3[C@@]3(c5noc(=O)[nH]5)C[C@@H]3C)[C@H]4C)c2=O)ccc1P(C)(C)=O [Compound 106a, 3-((1S,2S)-1-(2-((S)-3-(3-(4-(dimethylphosphoryl)-3-(methylamino)phenyl)-2-oxo-2,3-dihydro-1H-imidazol-1-yl)-2-(4-fluoro-3,5-dimethylphenyl)-4-methyl-4,5,6,7-tetrahydro-2H-pyrazolo[4,3-c]pyridine-5-carbonyl)-5-(tetrahydro-2H-pyran-4-yl)-1H-indol-1-yl)-2-methylcyclopropyl)-1,2,4-oxadiazol-5(4H)-one] | < 0.1 | ≤ 0.1 |
| Cc1cc(-n2nc3c(c2-n2ccn(-c4cccc(P(C)(C)=O)c4O)c2=O)[C@H](C)N(C(=O)c2cc4cc(C5CCOCC5)ccc4n2[C@@]2(c4noc(=O)[nH]4)C[C@@H]2C)CC3)cc(C)c1F [Compound 107a, 3-((1S,2S)-1-(2-((S)-3-(3-(3-(dimethylphosphoryl)-2-hydroxyphenyl)-2-oxo-2,3-dihydro-1H-imidazol-1-yl)-2-(4-fluoro-3,5-dimethylphenyl)-4-methyl-4,5,6,7-tetrahydro-2H-pyrazolo[4,3-c]pyridine-5-carbonyl)-5-(tetrahydro-2H-pyran-4-yl)-1H-indol-1-yl)-2-methylcyclopropyl)-1,2,4-oxadiazol-5(4H)-one] | 0.2 to 0.5 | 0.1 to 1 |
| Cc1cc(-n2nc3c(c2-n2ccn(-c4cc(P(C)(C)=O)c5[nH]cnc5c4)c2=O)[C@H](C)N(C(=O)c2cc4cc(C5CCOCC5)ccc4n2[C@@]2(c4noc(=O)[nH]4)C[C@@H]2C)CC3)cc(C)c1F [Compound 110a, 3-((1S,2S)-1-(2-((S)-3-(3-(7-(dimethylphosphoryl)-1H-benzo[d]imidazol-5-yl)-2-oxo-2,3-dihydro-1H-imidazol-1-yl)-2-(4-fluoro-3,5-dimethylphenyl)-4-methyl-4,5,6,7-tetrahydro-2H-pyrazolo[4,3-c]pyridine-5-carbonyl)-5-(tetrahydro-2H-pyran-4-yl)-1H-indol-1-yl)-2-methylcyclopropyl)-1,2,4-oxadiazol-5(4H)-one] | 0.5 to 5 | 0.1 to 1 |
| Cc1cc(-n2nc3c(c2-n2ccn(-c4cc(P(C)(C)=O)c5c(cnn5C)c4)c2=O)[C@H](C)N(C(=O)c2cc4cc(C5CCOCC5)ccc4n2[C@@]2(c4noc(=O)[nH]4)C[C@@H]2C)CC3)cc(C)c1F [Compound 112a, 3-((1S,2S)-1-(2-((S)-3-(3-(7-(dimethylphosphoryl)-1-methyl-1H-indazol-5-yl)-2-oxo-2,3-dihydro-1H-imidazol-1-yl)-2-(4-fluoro-3,5-dimethylphenyl)-4-methyl-4,5,6,7-tetrahydro-2H-pyrazolo[4,3-c]pyridine-5-carbonyl)-5-(tetrahydro-2H-pyran-4-yl)-1H-indol-1-yl)-2-methylcyclopropyl)-1,2,4-oxadiazol-5(4H)-one] | 0.5 to 5 | 0.1 to 1 |
| CCP(=O)(CC)c1ccc(-n2ccn(-c3c4c(nn3-c3cc(C)c(F)c(C)c3)CCN(C(=O)c3cc5cc(C6CCOCC6)ccc5n3[C@@]3(c5noc(=O)[nH]5)C[C@@H]3C)[C@H]4C)c2=O)cc1N1CCOCC1 [Compound 114a, 3-((1S,2S)-1-(2-((S)-3-(3-(4-(diethylphosphoryl)-3-morpholinophenyl)-2-oxo-2,3-dihydro-1H-imidazol-1-yl)-2-(4-fluoro-3,5-dimethylphenyl)-4-methyl-4,5,6,7-tetrahydro-2H-pyrazolo[4,3-c]pyridine-5-carbonyl)-5-(tetrahydro-2H-pyran-4-yl)-1H-indol-1-yl)-2-methylcyclopropyl)-1,2,4-oxadiazol-5(4H)-one] | 0.2 to 0.5 | 0.1 to 1 |
| CCP(=O)(CC)c1ccc(-n2ccn(-c3c4c(nn3-c3cc(C)c(F)c(C)c3)CCN(C(=O)c3cc5cc(C6CCOCC6)ccc5n3[C@@]3(c5noc(=O)[nH]5)C[C@@H]3C)[C@H]4C)c2=O)cc1NC(=O)C1CC1 [Compound 115a, N-(2-(diethylphosphoryl)-5-(3-((S)-2-(4-fluoro-3,5-dimethylphenyl)-4-methyl-5-(1-((1S,2S)-2-methyl-1-(5-oxo-4,5-dihydro-1,2,4-oxadiazol-3-yl)cyclopropyl)-5-(tetrahydro-2H-pyran-4-yl)-1H-indole-2-carbonyl)-4,5,6,7-tetrahydro-2H-pyrazolo[4,3-c]pyridin-3-yl)-2-oxo-2,3-dihydro-1H-imidazol-1-yl)phenyl)cyclopropanecarboxamide] | 0.2 to 0.5 | 0.1 to 1 |

More lines, now with the values ahead:

| EC50 [1] [nM] | EC50 [2] [nM] | Compound |
| --- | --- | --- |
| 0.1 to 0.2 | 0.1 to 1 | Cc1cc(-n2nc3c(c2-n2ccn(-c4ccc(P(C)(C)=O)cc4)c2=O)[C@H](C)N(C(=O)c2cc4cc(C5CCOCC5)ccc4n2[C@@]2(c4noc(=O)[nH]4)C[C@@H]2C)CC3)cc(C)c1F [Compound 101a, 3-((1S,2S)-1-(2-((S)-3-(3-(4-(Dimethylphosphoryl)phenyl)-2-oxo-2,3-dihydro-1H-imidazol-1-yl)-2-(4-fluoro-3,5-dimethylphenyl)-4-methyl-4,5,6,7-tetrahydro-2H-pyrazolo[4,3-c]pyridine-5-carbonyl)-5-(tetrahydro-2H-pyran-4-yl)-1H-indol-1-yl)-2-methylcyclopropyl)-1,2,4-oxadiazol-5(4H)-one] |
| 0.1 to 0.2 | 0.1 to 1 | Cc1cc(-n2nc3c(c2-n2ccn(-c4ccc(P(C)(C)=O)nc4)c2=O)[C@H](C)N(C(=O)c2cc4cc(C5CCOCC5)ccc4n2[C@@]2(c4noc(=O)[nH]4)C[C@@H]2C)CC3)cc(C)c1F [Compound 105a, 3-((1S,2S)-1-(2-((S)-3-(3-(6-(dimethylphosphoryl)pyridin-3-yl)-2-oxo-2,3-dihydro-1H-imidazol-1-yl)-2-(4-fluoro-3,5-dimethylphenyl)-4-methyl-4,5,6,7-tetrahydro-2H-pyrazolo[4,3-c]pyridine-5-carbonyl)-5-(tetrahydro-2H-pyran-4-yl)-1H-indol-1-yl)-2-methylcyclopropyl)-1,2,4-oxadiazol-5(4H)-one] |
| 0.2 to 0.5 | 0.1 to 1 | Cc1cc(-n2nc3c(c2-n2ccn(-c4ccc(P(C)(C)=O)c(F)c4)c2=O)[C@H](C)N(C(=O)c2cc4cc(C5CCOCC5)ccc4n2[C@@]2(c4noc(=O)[nH]4)C[C@@H]2C)CC3)cc(C)c1F [Compound 108a, 3-((1S,2S)-1-(2-((S)-3-(3-(4-(dimethylphosphoryl)-3-fluorophenyl)-2-oxo-2,3-dihydro-1H-imidazol-1-yl)-2-(4-fluoro-3,5-dimethylphenyl)-4-methyl-4,5,6,7-tetrahydro-2H-pyrazolo[4,3-c]pyridine-5-carbonyl)-5-(tetrahydro-2H-pyran-4-yl)-1H-indol-1-yl)-2-methylcyclopropyl)-1,2,4-oxadiazol-5(4H)-one] |
| 0.1 to 0.2 | 0.1 to 1 | Cc1cc(-n2nc3c(c2-n2ccn(-c4cccc(P(C)(C)=O)c4)c2=O)[C@H](C)N(C(=O)c2cc4cc(C5CCOCC5)ccc4n2[C@@]2(c4noc(=O)[nH]4)C[C@@H]2C)CC3)cc(C)c1F [Compound 109a, 3-((1S,2S)-1-(2-((S)-3-(3-(3-(dimethylphosphoryl)phenyl)-2-oxo-2,3-dihydro-1H-imidazol-1-yl)-2-(4-fluoro-3,5-dimethylphenyl)-4-methyl-4,5,6,7-tetrahydro-2H-pyrazolo[4,3-c]pyridine-5-carbonyl)-5-(tetrahydro-2H-pyran-4-yl)-1H-indol-1-yl)-2-methylcyclopropyl)-1,2,4-oxadiazol-5(4H)-one] |
| < 0.1 | ≤ 0.1 | Cc1cc(-n2nc3c(c2-n2ccn(-c4ccc(P(C)(C)=O)c(N)c4)c2=O)[C@H](C)N(C(=O)c2cc4cc(C5CCOCC5)ccc4n2[C@@]2(c4noc(=O)[nH]4)C[C@@H]2C)CC3)cc(C)c1F [Compound 111a, 3-((1S,2S)-1-(2-((S)-3-(3-(3-amino-4-(dimethylphosphoryl)phenyl)-2-oxo-2,3-dihydro-1H-imidazol-1-yl)-2-(4-fluoro-3,5-dimethylphenyl)-4-methyl-4,5,6,7-tetrahydro-2H-pyrazolo[4,3-c]pyridine-5-carbonyl)-5-(tetrahydro-2H-pyran-4-yl)-1H-indol-1-yl)-2-methylcyclopropyl)-1,2,4-oxadiazol-5(4H)-one] |
| 0.2 to 0.5 | 0.1 to 1 | Cc1cc(-n2nc3c(c2-n2ccn(-c4cccc(P(C)(C)=O)n4)c2=O)[C@H](C)N(C(=O)c2cc4cc(C5CCOCC5)ccc4n2[C@@]2(c4noc(=O)[nH]4)C[C@@H]2C)CC3)cc(C)c1F [Compound 113a, 3-((1S,2S)-1-(2-((S)-3-(3-(6-(dimethylphosphoryl)pyridin-2-yl)-2-oxo-2,3-dihydro-1H-imidazol-1-yl)-2-(4-fluoro-3,5-dimethylphenyl)-4-methyl-4,5,6,7-tetrahydro-2H-pyrazolo[4,3-c]pyridine-5-carbonyl)-5-(tetrahydro-2H-pyran-4-yl)-1H-indol-1-yl)-2-methylcyclopropyl)-1,2,4-oxadiazol-5(4H)-one] |

Source: patent US20240366639A1, “HETEROCYCLIC GLP-1 AGONISTS” (GASHERBRUM BIO, INC., priority 2021, published 2024)
